Experiments:
Rat Hepatic V1 Receptors = target: T1, Rat Hepatic V1 Receptors (Rattus norvegicus, UniProt P30560); test: Binding Assay to Rat Hepatic V1 Receptors; conditions: rat liver membranes; read-out: V1 IC50
T1 construct: Rat liver plasma membranes expressing the vasopressin V1 receptor subtypes; from tissue; host or cells: rat liver plasma membranes

[1] = target: T2, Rat Kidney Medullary V2 Receptors (Rattus norvegicus, UniProt Q00788); test: Binding Assay to Rat Kidney Medullary V2 Receptors; conditions: rat kidney medulla membranes; read-out: V2 IC50
T2 construct: Medullary tissues from rat kidneys are dissected out; from tissue; host or cells: rat kidney medulla membranes
Method in brief: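 Membranes were prepared from rat kidney medulla and stored in 50.0 mM Tris-HCl pH 7.4 with 0.2% BSA and 0.1 mM PMSF. Radioligand competition ran 120 min at bench temperature, with 1.0 μM unlabeled ligand defining nonspecific binding. Compounds were added in 50% DMSO; filtration, tritium scintillation counting, IC50 from competition analysis.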

Vasopressin V2 = Vasopressin V2 Antagonist Activity in Conscious Hydrated Rats; format: in vivo, rat; conditions: AVP 0.4 μg/kg i.p.
Method in brief: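 Four-hour urine output, osmolality and electrolytes (Na+, K+, Cl−) recorded in water-loaded rats (30 mL/kg deionized water orally) given AVP i.p. at 0.4 μg/kg. Test compounds were given orally at 0.1–100 mg/kg 1 h before AVP; 2–4 rats per compound.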

Vasopressin V1 = Vasopressin V1 Antagonist Activity in Conscious Rats (vasopressin vasopressor response); format: in vivo, rat; set-up: Average Change: unit not given here; conditions: for % Inhibition / Average Change: SHR
Method in brief: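 Conscious rats are restrained supine, and under local 2% procaine a PE 10/20 cannula is passed through the ventral caudal tail artery into the lower abdominal aorta. The caudal vein is cannulated for intravenous dosing. Blood pressure is recorded with a Statham P23Db transducer, and vasopressin injections are repeated after compound dosing. Percent antagonism is calculated against the pre-drug vasopressor response taken as 100%.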

[2] = 10 mg/kg i.v., VAS 0.01 i.u./kg, 30 min
[3] = 10 mg/kg i.v., VAS 0.01 i.u./kg, 60 min
[4] = 10 mg/kg i.v., VAS 0.01 i.u./kg, 90 min
[5] = 10 mg/kg i.v., VAS 0.01 i.u./kg, 120 min
[6] = 10 mg/kg i.v., VAS 0.01 i.u./kg, 180 min
[7] = 10 mg/kg i.v., VAS 0.01 i.u./kg, 240 min
[8] = 10 mg/kg i.v., VAS 0.01 i.u./kg, 300 min
[9] = 10 mg/kg i.v., VAS 0.02 i.u./kg, 30 min
[10] = 10 mg/kg i.v., VAS 0.02 i.u./kg, 60 min
[11] = 10 mg/kg i.v., VAS 0.02 i.u./kg, 90 min
[12] = 10 mg/kg i.v., VAS 0.02 i.u./kg, 120 min
[13] = 10 mg/kg i.v., VAS 0.02 i.u./kg, 180 min
[14] = 10 mg/kg i.v., VAS 0.02 i.u./kg, 240 min
[15] = 10 mg/kg i.v., VAS 0.02 i.u./kg, 300 min

T1 sequence (P30560 whole entry): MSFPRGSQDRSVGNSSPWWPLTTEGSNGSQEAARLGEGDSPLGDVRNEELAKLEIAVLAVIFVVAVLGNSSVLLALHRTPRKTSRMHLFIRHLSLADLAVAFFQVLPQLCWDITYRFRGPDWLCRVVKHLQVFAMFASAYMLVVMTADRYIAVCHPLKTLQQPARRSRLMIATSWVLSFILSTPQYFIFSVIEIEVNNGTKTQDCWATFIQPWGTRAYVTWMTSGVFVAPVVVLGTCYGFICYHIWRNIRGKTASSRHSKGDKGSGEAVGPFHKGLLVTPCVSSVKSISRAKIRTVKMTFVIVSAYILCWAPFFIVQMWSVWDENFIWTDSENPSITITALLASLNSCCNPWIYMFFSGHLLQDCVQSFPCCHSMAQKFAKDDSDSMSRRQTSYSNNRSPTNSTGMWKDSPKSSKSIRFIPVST
T2 sequence (Q00788 whole entry): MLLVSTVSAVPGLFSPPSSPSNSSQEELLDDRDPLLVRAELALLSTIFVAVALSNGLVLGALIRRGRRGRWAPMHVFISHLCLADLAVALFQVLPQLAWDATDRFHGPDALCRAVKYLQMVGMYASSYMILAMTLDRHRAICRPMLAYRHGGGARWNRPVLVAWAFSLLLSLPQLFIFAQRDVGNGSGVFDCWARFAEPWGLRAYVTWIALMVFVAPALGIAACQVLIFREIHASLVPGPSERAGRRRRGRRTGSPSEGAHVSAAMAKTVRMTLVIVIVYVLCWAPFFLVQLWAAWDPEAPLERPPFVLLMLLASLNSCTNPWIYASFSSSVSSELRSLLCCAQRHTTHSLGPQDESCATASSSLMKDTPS

O=C(Nc1ccc(C(=O)N2Cc3cccn3Cc3ccccc32)cc1)c1cccc(F)c1F [Example 1]
IC50 (Rat Hepatic V1 Receptors): 97 nM | IC50 [1]: 29 nM | Osmolality (Vasopressin V2; 30 mg/kg orally): 1504 mOsm/kg | Urine Volume (Vasopressin V2; 30 mg/kg orally): 1.1 ml/4 hrs | % Inhibition (Vasopressin V1; [2]): 88% | Average Change (Vasopressin V1; [2]): 4 | % Inhibition (Vasopressin V1; [3]): 51% | Average Change (Vasopressin V1; [3]): 16.5 | % Inhibition (Vasopressin V1; [4]): 37% | Average Change (Vasopressin V1; [4]): 21 | % Inhibition (Vasopressin V1; [5]): 33% | Average Change (Vasopressin V1; [5]): 22.5 | % Inhibition (Vasopressin V1; [6]): 13% | Average Change (Vasopressin V1; [6]): 29 | % Inhibition (Vasopressin V1; [7]): 19% | Average Change (Vasopressin V1; [7]): 27 | % Inhibition (Vasopressin V1; [8]): 4% | Average Change (Vasopressin V1; [8]): 32 | % Inhibition (Vasopressin V1; [9]): 85% | Average Change (Vasopressin V1; [9]): 8 | % Inhibition (Vasopressin V1; [10]): 62% | Average Change (Vasopressin V1; [10]): 20 | % Inhibition (Vasopressin V1; [11]): 49% | Average Change (Vasopressin V1; [11]): 27 | % Inhibition (Vasopressin V1; [12]): 29% | Average Change (Vasopressin V1; [12]): 37.5 | % Inhibition (Vasopressin V1; [13]): 9% | Average Change (Vasopressin V1; [13]): 48 | % Inhibition (Vasopressin V1; [14]): 25% | Average Change (Vasopressin V1; [14]): 39.5 | % Inhibition (Vasopressin V1; [15]): 25% | Average Change (Vasopressin V1; [15]): 39.5

COc1ccccc1C(=O)Nc1ccc(C(=O)N2Cc3cccn3Cc3ccccc32)cc1 [Example 2, N-[4-(5H-Pyrrolo[2,1-c][1,4]benzodiazepin-10(11H)-ylcarbonyl)phenyl]-2-methoxybenzamide]
IC50 (Rat Hepatic V1 Receptors): 31 nM | IC50 [1]: 14 nM | Osmolality (Vasopressin V2; 10 mg/kg orally): 1015 mOsm/kg | Urine Volume (Vasopressin V2; 10 mg/kg orally): 9.3 ml/4 hrs | % Inhibition (Vasopressin V1; [2]): 79% | Average Change (Vasopressin V1; [2]): 6.5 | % Inhibition (Vasopressin V1; [3]): 74% | Average Change (Vasopressin V1; [3]): 8 | % Inhibition (Vasopressin V1; [4]): 66% | Average Change (Vasopressin V1; [4]): 10.5 | % Inhibition (Vasopressin V1; [5]): 69% | Average Change (Vasopressin V1; [5]): 9.5 | % Inhibition (Vasopressin V1; [6]): 55% | Average Change (Vasopressin V1; [6]): 14 | % Inhibition (Vasopressin V1; [7]): 47% | Average Change (Vasopressin V1; [7]): 16.5 | % Inhibition (Vasopressin V1; [8]): 44% | Average Change (Vasopressin V1; [8]): 17.5 | % Inhibition (Vasopressin V1; [9]): 84% | Average Change (Vasopressin V1; [9]): 8 | % Inhibition (Vasopressin V1; [10]): 74% | Average Change (Vasopressin V1; [10]): 13 | % Inhibition (Vasopressin V1; [11]): 70% | Average Change (Vasopressin V1; [11]): 15 | % Inhibition (Vasopressin V1; [12]): 70% | Average Change (Vasopressin V1; [12]): 15 | % Inhibition (Vasopressin V1; [13]): 56% | Average Change (Vasopressin V1; [13]): 22 | % Inhibition (Vasopressin V1; [14]): 50% | Average Change (Vasopressin V1; [14]): 25 | % Inhibition (Vasopressin V1; [15]): 37% | Average Change (Vasopressin V1; [15]): 31.5 | Max. % Inhibition (Vasopressin V1; 30 mg/kg i.v.): 74% | Time (of max. % inhibition) (Vasopressin V1; 30 mg/kg i.v.): 120 min

Cc1ccccc1C(=O)Nc1ccc(C(=O)N2Cc3cccn3-c3ccccc32)cc1 [Example 14, 2-Methyl-N-[4-(pyrrolo[1,2-a]quinoxalin-5 (4H)-ylcarbonyl)phenyl]benzamide]
IC50 (Rat Hepatic V1 Receptors): 170 nM | IC50 [1]: 66 nM | Osmolality (Vasopressin V2; 3 mg/kg orally): 1000 mOsm/kg | Urine Volume (Vasopressin V2; 3 mg/kg orally): 4.5 ml/4 hrs | Osmolality (Vasopressin V2; 10 mg/kg orally): 836 mOsm/kg | Urine Volume (Vasopressin V2; 10 mg/kg orally): 5.2 ml/4 hrs | % Inhibition (Vasopressin V1; [2]): 25% | Average Change (Vasopressin V1; [2]): 26 | % Inhibition (Vasopressin V1; [3]): 23% | Average Change (Vasopressin V1; [3]): 26.5 | % Inhibition (Vasopressin V1; [4]): 39% | Average Change (Vasopressin V1; [4]): 21 | % Inhibition (Vasopressin V1; [5]): 23% | Average Change (Vasopressin V1; [5]): 26.5 | % Inhibition (Vasopressin V1; [6]): 6% | Average Change (Vasopressin V1; [6]): 32.5 | % Inhibition (Vasopressin V1; [7]): 17% | Average Change (Vasopressin V1; [7]): 28.5 | % Inhibition (Vasopressin V1; [8]): 26% | Average Change (Vasopressin V1; [8]): 25.5 | % Inhibition (Vasopressin V1; [9]): 20% | Average Change (Vasopressin V1; [9]): 38 | % Inhibition (Vasopressin V1; [10]): 34% | Average Change (Vasopressin V1; [10]): 31.5 | % Inhibition (Vasopressin V1; [11]): 16% | Average Change (Vasopressin V1; [11]): 40 | % Inhibition (Vasopressin V1; [12]): 17% | Average Change (Vasopressin V1; [12]): 39.5 | % Inhibition (Vasopressin V1; [13]): -9% | Average Change (Vasopressin V1; [13]): 52 | % Inhibition (Vasopressin V1; [14]): 25% | Average Change (Vasopressin V1; [14]): 35.5 | % Inhibition (Vasopressin V1; [15]): 16% | Average Change (Vasopressin V1; [15]): 40

O=C(Nc1ccc(C(=O)N2Cc3cccn3Cc3ccccc32)cc1)C1CCCCC1 [Example 358, N-[4-(5H-Pyrrolo[2,1-c][1,4]benzodiazepin-10(11)ylcarbonyl)phenyl]-cyclohexanecarboxamide]
IC50 (Rat Hepatic V1 Receptors): 11 nM | IC50 [1]: 16 nM | Osmolality (Vasopressin V2; 30 mg/kg orally): 875 mOsm/kg | Urine Volume (Vasopressin V2; 30 mg/kg orally): 5.5 ml/4 hrs | % Inhibition (Vasopressin V1; [2]): 67% | Average Change (Vasopressin V1; [2]): 12 | % Inhibition (Vasopressin V1; [3]): 64% | Average Change (Vasopressin V1; [3]): 13 | % Inhibition (Vasopressin V1; [4]): 52% | Average Change (Vasopressin V1; [4]): 17.5 | % Inhibition (Vasopressin V1; [5]): 78% | Average Change (Vasopressin V1; [5]): 8 | % Inhibition (Vasopressin V1; [6]): 52% | Average Change (Vasopressin V1; [6]): 17.5 | % Inhibition (Vasopressin V1; [7]): 67% | Average Change (Vasopressin V1; [7]): 12 | % Inhibition (Vasopressin V1; [8]): 48% | Average Change (Vasopressin V1; [8]): 19 | % Inhibition (Vasopressin V1; [9]): 39% | Average Change (Vasopressin V1; [9]): 24 | % Inhibition (Vasopressin V1; [10]): 75% | Average Change (Vasopressin V1; [10]): 10 | % Inhibition (Vasopressin V1; [11]): 72% | Average Change (Vasopressin V1; [11]): 11 | % Inhibition (Vasopressin V1; [12]): 65% | Average Change (Vasopressin V1; [12]): 14 | % Inhibition (Vasopressin V1; [13]): 63% | Average Change (Vasopressin V1; [13]): 14.5 | % Inhibition (Vasopressin V1; [14]): 61% | Average Change (Vasopressin V1; [14]): 15.5 | % Inhibition (Vasopressin V1; [15]): 59% | Average Change (Vasopressin V1; [15]): 16

O=C(Cc1ccccc1Cl)Nc1ccc(C(=O)N2Cc3cccn3Cc3ccccc32)cc1 [Example 9, 2-Chloro-N-[4-(5H-pyrrolo[2,1-c][1,4]-benzodiazepin-10(11H)-ylcarbonyl)phenyl]benzeneacetamide]
IC50 (Rat Hepatic V1 Receptors): 7 nM | IC50 [1]: 4 nM | Osmolality (Vasopressin V2; 10 mg/kg orally): 702 mOsm/kg | Urine Volume (Vasopressin V2; 10 mg/kg orally): 5.8 ml/4 hrs | Max. % Inhibition (Vasopressin V1; 10 mg/kg i.v.): 95% | Time (of max. % inhibition) (Vasopressin V1; 10 mg/kg i.v.): 60 min
